# Measurements: patent US20240255509A1, “COMPOSITIONS AND METHODS RELATED TO K180 DIMETHYLATED H1.0 PROTEIN” (Aelan Cell Technologies, Inc., priority 2016, published 2024)
# How the values were obtained:
# [1] = system: secreted H1.0K180me2; assay: Slot blot of conditioned medium of hADSCs after bleomycin (secretion); assay type: cell-based, human
# Procedure: 0.5 μl of serum sample or known amounts of synthesized peptide were diluted in 200 μl TBS. Samples were then heat denatured at 70° C. for 10 minutes before being transferred to nitrocellulose membrane using a vacuum manifold slot blot apparatus (BioRad, 1706542). The membrane was blocked with 5% non-fat milk in PBS-T for 30 minutes at RT then immunoblotted with the above primary antibodies at 4° C. overnight. Proteins were detected with HRP secondary antibodies listed above for 1 hour at RT followed by ECL Western Blotting Substrate (ThermoFisher, 32106) using manufacturer's instructions. All washes between steps were with PBS-T. Membranes were imaged with Omega LUM-C imaging system (Gel Company). Slot blot bands for each sample were then quantified using ImageJ.
# This signifies secretion out of the cells. An increase in DNA fragmentation factor (DFFB/DFF40/CAD) secretion upon GSI-SEN was seen, in a similar manner to H1.0K180me2 starting 48 hours after treatment (FIG. 7B).
# SR hADSCs, hADSCs treated with bleomycin for 2 hours (acute DNA damage) and hADSCs treated with bleomycin and allowed to senesce for 3 days (genotoxic stress induced senescence) were lysed and fractionated into soluble and chromatin bound fractions. These fractions were then subjected to LC-MS/MS analysis. Peptide expression levels were taken as the total area under the LC-MS/MS relative intensity curve, and individual peptides were unambiguously assigned to proteins using Pinpoint software, version 1.4 (Thermo Scientific). The areas of all peptides assigned to an individual protein were summed to yield protein expression levels, which were normalized against the total protein library size for each sample. For each cellular fraction, H1.0 peptide abundance is represented as a percentage of total H1.0 peptides observed in each condition. Normalized absolute values of H1.0 peptide levels in each fraction were also shown. […] Culture media from SR hADSCs treated with bleomycin was collected for slot blot analysis with α-H1.0 and α-H1.0K180me2 antibodies to assess secretion of H1.0 to the extracellular matrix (ECM). The experiment was carried out according to methods described in Example 1.
# [2] = system: Chromatin bound H1.0; assay: LC-MS/MS of soluble and chromatin bound fractions of hADSCs after bleomycin; assay type: cell-based, human
# Procedure: (§1) For replicative senescence, hADSCs were grown in culture until reaching replicative exhaustion (PD 41-46). For acute DNA damage conditions, SR hADSCs (PD 4-10) were treated with 50 μg/ml bleomycin sulfate (Cayman Chemical, 13877) in growth media for 2 hours. For genotoxic stress-induced senescence, SR hADSCs (PD 4-10) were treated with 50 μg/ml bleomycin sulfate (Cayman Chemical, 13877) in growth media for 2 hours then washed with PBS and given fresh growth media without bleomycin. Cells were then grown for 3 days before collection.
# SR hADSCs, hADSCs treated with bleomycin for 2 hours (acute DNA damage) and hADSCs treated with bleomycin and allowed to senesce for 3 days (genotoxic stress induced senescence) were lysed and fractionated into soluble and chromatin bound fractions. These fractions were then subjected to LC-MS/MS analysis. Peptide expression levels were taken as the total area under the LC-MS/MS relative intensity curve, and individual peptides were unambiguously assigned to proteins using Pinpoint software, version 1.4 (Thermo Scientific). The areas of all peptides assigned to an individual protein were summed to yield protein expression levels, which were normalized against the total protein library size for each sample. For each cellular fraction, H1.0 peptide abundance is represented as a percentage of total H1.0 peptides observed in each condition. […]
# [3] = system: histone H1.0 mRNA; assay: RT-PCR analysis of histone H1.0 mRNA expression in hADSCs after bleomycin; assay type: cell-based, human
# Procedure: as §1
# RT-PCR analysis of histone H1.0 mRNA expression was performed on total RNA derived from self-replicating hADSCs, hADSCs treated with bleomycin for 2 hours (acute DNA damage) and hADSCs treated with bleomycin and allowed to senesce for 3 days (genotoxic stress-induced senescence). H1.0 mRNA expression increases over 2-fold upon acute DNA damage, and remains elevated (1.5-fold over SR) upon genotoxic stress induced senescence.
# [4] = system: H1.0K180me2; assay: Western blot for H1.0K180me2 in SR hADSCs after bleomycin or temozolomide; assay type: cell-based, human; conditions: SR hADSCs treated for 2 hours, 50 μg/ml
# Description: Material for western blot analysis (cultured cells or tissue) was lysed in ice-cold RIPA lysis buffer (Thermo Scientific 89900) and sonicated using a Covaris S2 sonicator (10% duty cycle, Intensity 5, Bursts per minute 100, 120 seconds). Total protein concentration in each sample was quantified using Quick Start Bradford 1× Dye Reagent (BioRad, 5000205) following manufacturer's protocol. Samples were then mixed with NUPAGE LDS sample loading buffer (ThermoFisher, NP0007) and NUPAGE sample reducing buffer (ThermoFisher, NP0004), and heat denatured at 70° C. for 10 minutes. Proteins were separated on 4-12% precast polyacrylamide gels (ThermoFisher, NP0321) by electrophoresis and transferred to 0.45 μm nitrocellulose membrane. The membrane was blocked with 5% non-fat milk in PBS-T for 30 minutes at RT then immunoblotted with the above primary antibodies at 4° C. overnight. Proteins were detected with HRP secondary antibodies listed above for 1 hour at RT followed by ECL Western Blotting Substrate (ThermoFisher, 32106) using manufacturer's instructions. All washes between steps were with PBS-T. Membranes were imaged with Omega LUM-C imaging system (Gel Company). […]
# SR hADSCs were treated for 2 hours with bleomycin or temozolomide, a compound that triggers base excision repair pathways. Cells were then lysed and analyzed be western blot for H1.0K180me2, γH2A.X and β-Actin.
# [5] = system: H1.0K180me2; assay: H1.0K180me2 on chromatin (western blot) and localization in hADSCs after bleomycin; assay type: cell-based, human
# Procedure: as §1
# (§2) Material for western blot analysis (cultured cells or tissue) was lysed in ice-cold RIPA lysis buffer (Thermo Scientific 89900) and sonicated using a Covaris S2 sonicator (10% duty cycle, Intensity 5, Bursts per minute 100, 120 seconds). Total protein concentration in each sample was quantified using Quick Start Bradford 1× Dye Reagent (BioRad, 5000205) following manufacturer's protocol. Samples were then mixed with NUPAGE LDS sample loading buffer (ThermoFisher, NP0007) and NUPAGE sample reducing buffer (ThermoFisher, NP0004), and heat denatured at 70° C. for 10 minutes. […] Proteins were detected with HRP secondary antibodies listed above for 1 hour at RT followed by ECL Western Blotting Substrate (ThermoFisher, 32106) using manufacturer's instructions. […]
# [6] = system: H1.0K180me2; assay: Western blot for H1.0K180me2 in SR hADSCs treated with bleomycin after rapamycin or everolimus pretreatment; assay type: cell-based, human; conditions: 500 nM, 24 hours pretreatment, then bleomycin 2 hours
# Description: as §2, with “minutes. Proteins were separated on 4-12% precast polyacrylamide gels (ThermoFisher, NP0321) by electrophoresis and transferred to 0.45 μm nitrocellulose membrane.” for “minutes.”
# To test if rapamycin derivatives may block H1.0K180me2 appearance upon DNA damage, SR hADSCs were treated with bleomycin for 2 hours with or without pretreatment with rapamycin or everolimus (a derivative of rapamycin) for 24 hours. Cells were then lysed and analyzed be western blot for H1.0K180me2, γH2A.X and β-Actin, according to methods described in Example 1.
# [7] = system: chromatin-bound H1.0K180me2 and γH2A.X; assay: Western blot of chromatin-bound H1.0K180me2 and γH2A.X upon bleomycin with PARP-1 inhibition; assay type: cell-based, human; conditions: 1 μM for 24 hours, bleomycin treatment
# Description: as §2, with “minutes. Proteins were separated on 4-12% precast polyacrylamide gels (ThermoFisher, NP0321) by electrophoresis and transferred to 0.45 μm nitrocellulose membrane.” for “minutes.”
# (§3) To further assess if H1.0K180 methylation is dependent on the DNA damage repair pathway protein PARP-1 activity, western blot analysis was performed according to methods described in Example 1, to examine chromatin-bound H1.0K180me2 and γH2A.X upon treatment with bleomycin. […] Thus it was determined that H1.0K180 methylation is independent of DNA damage repair pathway protein PARP-1 activity
# [8] = molecular target: T1, PARP-1 (Homo sapiens, UniProt P09874); assay: Western blot of PARP-1 inhibitor activity in whole cell lysates (poly-(ADP)-ribose levels); assay type: cell-based; conditions: 1 μM for 24 hours
# T1 construct: endogenous in cells; host or cells: hADSCs (inferred)
# T1 sequence (P09874 whole entry): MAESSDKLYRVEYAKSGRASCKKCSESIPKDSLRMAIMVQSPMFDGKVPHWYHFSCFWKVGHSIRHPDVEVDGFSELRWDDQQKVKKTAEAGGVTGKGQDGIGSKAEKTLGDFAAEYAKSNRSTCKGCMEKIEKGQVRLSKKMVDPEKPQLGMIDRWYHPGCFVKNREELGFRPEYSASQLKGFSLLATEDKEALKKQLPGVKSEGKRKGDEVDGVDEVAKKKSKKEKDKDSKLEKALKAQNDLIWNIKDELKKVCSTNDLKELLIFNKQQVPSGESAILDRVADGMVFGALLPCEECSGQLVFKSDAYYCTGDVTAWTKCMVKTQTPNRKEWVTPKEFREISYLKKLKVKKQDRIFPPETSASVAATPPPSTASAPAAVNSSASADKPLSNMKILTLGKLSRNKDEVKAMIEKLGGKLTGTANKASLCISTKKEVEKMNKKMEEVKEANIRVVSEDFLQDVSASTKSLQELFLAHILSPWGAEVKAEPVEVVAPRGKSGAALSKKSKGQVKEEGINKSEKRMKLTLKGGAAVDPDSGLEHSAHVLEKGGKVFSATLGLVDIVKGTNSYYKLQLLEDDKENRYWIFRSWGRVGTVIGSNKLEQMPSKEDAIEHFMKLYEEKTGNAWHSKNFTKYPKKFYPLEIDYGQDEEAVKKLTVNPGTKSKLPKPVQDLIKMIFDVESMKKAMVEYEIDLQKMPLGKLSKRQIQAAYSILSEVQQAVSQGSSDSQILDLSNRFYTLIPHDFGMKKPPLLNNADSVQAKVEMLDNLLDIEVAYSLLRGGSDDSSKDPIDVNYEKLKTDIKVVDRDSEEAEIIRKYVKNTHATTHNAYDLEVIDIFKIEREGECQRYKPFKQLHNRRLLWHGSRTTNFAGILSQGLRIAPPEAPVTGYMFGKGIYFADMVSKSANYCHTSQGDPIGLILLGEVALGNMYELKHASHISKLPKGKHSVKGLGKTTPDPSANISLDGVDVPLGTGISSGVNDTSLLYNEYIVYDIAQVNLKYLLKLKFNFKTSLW
# Description: as §2, with “minutes. Proteins were separated on 4-12% precast polyacrylamide gels (ThermoFisher, NP0321) by electrophoresis and transferred to 0.45 μm nitrocellulose membrane.” for “minutes.”
# as §3
# [9] = acute DNA damage: bleomycin for 2 hours
# [10] = genotoxic stress induced senescence: bleomycin, then 3 days
compound,measurement,setting,value
bleomycin sulfate,DNA fragmentation factor (DFFB/DFF40/CAD) secretion,"[1]; GSI-SEN, starting 48 hours after treatment",increase
same,secretion of H1.0K180me2 and DFFB upon onset of acute DNA damage (ADD),[1]; acute DNA damage,None of the protein is secreted in measurable quantities
same,secreted H1.0K180me2 in cell culture media,[1]; after 24 hours of bleomycin treatment,readily detected
same,time of maximal H1.0K180me2 secretion into conditioned medium,[1]; time course after bleomycin,≤ 48 h
same,"Chromatin bound H1.0, % of total H1.0 peptides",[2]; [9],~60%
same,"Chromatin bound H1.0, % of total H1.0 peptides",[2]; [10],~30%
same,H1.0 mRNA expression increase over SR,[3]; [9],over 2 fold
same,H1.0 mRNA expression increase over SR,[3]; [10],1.5 fold
same,induction of H1.0K180me2 methylation,[4],capable of inducing H1.0K180me2 methylation
same,localization of H1.0K180me2,[5]; SR hADSCs treated with bleomycin,localized to the cytoplasm
same,methylation of H1.0K180 on chromatin,"[5]; bleomycin for 2 hours, chromatin bound fraction, western blot",methylation of H1.0K180 on the chromatin
"CO[C@H]1C[C@@H]2CC[C@@H](C)[C@@](O)(O2)C(=O)C(=O)N2CCCC[C@H]2C(=O)O[C@H]([C@H](C)C[C@@H]2CC[C@@H](OCCO)[C@H](OC)C2)CC(=O)[C@H](C)/C=C(\C)[C@@H](O)[C@@H](OC)C(=O)[C@H](C)C[C@H](C)/C=C/C=C/C=C/1C [everolimus, Everolimus]",appearance of H1.0K180me2 upon bleomycin treatment,[6],reduced the appearance of H1.0K180me2
CN(C)Cc1ccc(-c2nc3cccc4c3n2CCNC4=O)cc1 [AG14361],accumulation of chromatin-bound H1.0K180me2,[7],increased accumulation
same,accumulation of chromatin-bound γH2A.X,[7],increased accumulation
same,poly-(ADP)-ribose (PAR) levels increased upon bleomycin treatment,[8],abolished
